Paper PMC8426237, “A first-in-human phase I study of TAS0728, an oral covalent binding inhibitor of HER2, in patients with advanced solid tumors with HER2 or HER3 aberrations” (Investigational New Drugs, 2021)

Assay: Phase I safety assessment: adverse events (CTCAE v5.0) in patients
[1] = 50-mg dose level cohort, 2 of 3
[2] = Dose Level 1: 50 mg BID (N = 3)
[3] = Dose Level 2: 100 mg BID (N = 3)
[4] = Dose Level 3: 200 mg BID (N = 7)

Experimental: A DLT was defined as a study treatment-related adverse event (TRAE), according to the Common Terminology Criteria for Adverse Events (CTCAE, Version 5.0), with qualifying criteria for certain DLTs (e.g., Grade ≥ 3 diarrhea, was included as a DLT only if lasting >48 h and unresponsive to intensive antidiarrheal medication).
Patients were closely monitored for these potential toxicities during the current study. Safety assessments included recording of AEs and serious AEs (SAEs) from the time of signing the study informed consent form to 30 days after the last dose of study medication. Safety parameters including laboratory evaluations (hematology, coagulation, chemistry, and urinalysis), vital sign measurements and body weight, electrocardiogram (ECG) recordings, ECOG performance status, echocardiogram or multi-gated acquisition (MUGA), and physical examination were assessed at screening, during the study and at 30 days following the last dose. The use of concomitant medications was permitted and details for such medications were recorded.

C=CC(=O)N1CCC[C@@H](n2nc(C(=O)Nc3ccc(CC(=O)N(C)C)c(C)c3C)c3c(N)ncnc32)C1 [TAS0728]
1 (14.3) n (%): Anemia, Grade 3 [4] | Anemia, ≥Grade 3 [4] | Asthenia, Grade 2 [4] | Decreased appetite, Grade 1 [4] | Decreased appetite, Grade 2 [4] | Dermatitis acneiform, Grade 2 [4]
3 (100) n, (%): Patients with AEs (50 mg BID (N = 3)) | Patients with treatment-related AEs (50 mg BID (N = 3)) | Patients with AEs (100 mg BID (N = 3)) | Patients with treatment-related AEs (100 mg BID (N = 3))
2 (28.6) n (%): Anemia, Grade 1 [4] | Asthenia, Grade 1 [4] | Asthenia, Total [4] | Decreased appetite, Total [4] | Dermatitis acneiform, Grade 1 [4]
5 (71.4) n (%): Anemia, Total [4]
1 (33.3) n (%): Adverse events experienced in ≥10% patients, Grade 2 [2] | Adverse events experienced in ≥10% patients, Grade 4 [2] | Diarrhea, Grade 2 [2] | Diarrhea, Grade 3 [2] | Diarrhea, ≥Grade 3 [2] | Diarrhea, Grade 2 [3]
0 n (%): Adverse events experienced in ≥10% patients, Grade 5 [2] | Diarrhea, Grade 4 [2] | Diarrhea, Grade 5 [2] | Hyperuricemia, Grade 2 [2] | Hyperuricemia, Grade 3 [2] | Hyperuricemia, Grade 4 [2] | Hyperuricemia, Grade 5 [2] | Hyperuricemia, ≥Grade 3 [2] | Adverse events experienced in ≥10% patients, Grade 3 [3] | Adverse events experienced in ≥10% patients, Grade 4 [3] | Adverse events experienced in ≥10% patients, Grade 5 [3] | Adverse events experienced in ≥10% patients, ≥Grade 3 [3] | Diarrhea, Grade 3 [3] | Diarrhea, Grade 4 [3] | Diarrhea, Grade 5 [3] | Diarrhea, ≥Grade 3 [3] | Adverse events experienced in ≥10% patients, Grade 4 [4] | Adverse events experienced in ≥10% patients, Grade 5 [4] | Anemia, Grade 4 [4] | Anemia, Grade 5 [4] | Asthenia, Grade 3 [4] | Asthenia, Grade 4 [4] | Asthenia, Grade 5 [4] | Asthenia, ≥Grade 3 [4] | Cough, Grade 2 [4] | Cough, Grade 3 [4] | Cough, Grade 4 [4] | Cough, Grade 5 [4] | Cough, ≥Grade 3 [4] | Decreased appetite, Grade 3 [4] | Decreased appetite, Grade 4 [4] | Decreased appetite, Grade 5 [4] | Decreased appetite, ≥Grade 3 [4] | Dermatitis acneiform, Grade 3 [4] | Dermatitis acneiform, Grade 4 [4] | Dermatitis acneiform, Grade 5 [4]
3: Patients with diarrhea at a severity ≥Grade 3 (200-mg dose)
100%: Patients with diarrhea (all Grade 1 or Grade 2) (100-mg dose level cohort, all 3)
5 (83.3) n, (%): Patients with treatment-related AEs (150 mg BID (N = 6))
3 (100) n (%): Adverse events experienced in ≥10% patients, Grade 1 [2] | Adverse events experienced in ≥10% patients, Total [2] | Adverse events experienced in ≥10% patients, Grade 1 [3] | Adverse events experienced in ≥10% patients, Total [3] | Diarrhea, Grade 1 [3] | Diarrhea, Total [3]
7 (100) n, (%): Patients with AEs (200 mg BID (N = 7))
2 (33.3) n, (%): Patients with treatment-related and Grade ≥ 3 AEs (150 mg BID (N = 6))
42.9%: Patients with cough (200-mg dose, 3/7) | Patients with dermatitis acneiform (200-mg dose, 3/7) | Patients with fatigue (200-mg dose, 3/7) | Patients with pyrexia (200-mg dose, 3/7)
6 (85.7) n (%): Adverse events experienced in ≥10% patients, Grade 1 [4]
1 (14.3) n, (%): Patients with AEs that led to study treatment discontinuation (200 mg BID (N = 7))
85.7%: Patients with diarrhea (200-mg dose, 6 of 7)
1 (33.3) n, (%): Patients with SAEs (50 mg BID (N = 3)) | Patients with AEs that led to study treatment discontinuation (100 mg BID (N = 3))
4 (66.7) n, (%): Patients with SAEs (150 mg BID (N = 6))
1 (16.7) n, (%): Patients with AEs that had an outcome of death (150 mg BID (N = 6)) | Patients with AEs that led to study treatment discontinuation (150 mg BID (N = 6))
one: Patients with fatal cardiac arrest (Grade 5) (150 mg BID, after 1 cycle (21 days))
71.4%: Patients with anemia (200-mg dose, 5/7)
3 (50.0) n, (%): Patients with Grade ≥ 3 AEs (150 mg BID (N = 6))
2 (66.7) n (%): Adverse events experienced in ≥10% patients, Grade 3 [2] | Adverse events experienced in ≥10% patients, ≥Grade 3 [2] | Diarrhea, Grade 1 [2] | Diarrhea, Total [2] | Hyperuricemia, Grade 1 [2] | Hyperuricemia, Total [2] | Adverse events experienced in ≥10% patients, Grade 2 [3]
4 (57.1) n, (%): Patients with Grade ≥ 3 AEs (200 mg BID (N = 7)) | Patients with treatment-related and Grade ≥ 3 AEs (200 mg BID (N = 7))
5.3%: Treatment discontinuation due to AEs (1 patient of 19) | Treatment discontinuation due to fatal cardiac arrest (1 patient of 19)
7 (100) n (%): Adverse events experienced in ≥10% patients, Grade 2 [4] | Adverse events experienced in ≥10% patients, Total [4]
6 (85.7) n, (%): Patients with treatment-related AEs (200 mg BID (N = 7))
3 (42.9) n, (%): Patients with SAEs (200 mg BID (N = 7))
66.7%: Patients with diarrhea [1] | Patients with hyperuricemia [1]
28.6%: Patients with asthenia (200-mg dose, 2/7) | Patients with decreased appetite (200-mg dose, 2/7) | Patients with dry skin (200-mg dose, 2/7) | Patients with edema peripheral (200-mg dose, 2/7) | Patients with hypokalemia (200-mg dose, 2/7) | Patients with nausea (200-mg dose, 2/7) | Patients with vomiting (200-mg dose, 2/7)
1: Patients with diarrhea at a severity ≥Grade 3 (50-mg dose level cohort)
2 (66.7) n, (%): Patients with Grade ≥ 3 AEs (50 mg BID (N = 3))
6 (100) n, (%): Patients with AEs (150 mg BID (N = 6))
4 (57.1) n (%): Adverse events experienced in ≥10% patients, Grade 3 [4] | Adverse events experienced in ≥10% patients, ≥Grade 3 [4]
2: Patients who worsened to an ECOG status of 2 (1 in each of the 200-mg and 150-mg BID cohorts, ECOG 1 at baseline)
3 (42.9) n (%): Anemia, Grade 2 [4] | Cough, Grade 1 [4] | Cough, Total [4] | Dermatitis acneiform, Total [4]
0 n, (%): Patients with AEs that had an outcome of death (50 mg BID (N = 3)) | Patients with AEs that led to study treatment discontinuation (50 mg BID (N = 3)) | Patients with treatment-related and Grade ≥ 3 AEs (50 mg BID (N = 3)) | Patients with AEs that had an outcome of death (100 mg BID (N = 3)) | Patients with Grade ≥ 3 AEs (100 mg BID (N = 3)) | Patients with SAEs (100 mg BID (N = 3)) | Patients with treatment-related and Grade ≥ 3 AEs (100 mg BID (N = 3)) | Patients with AEs that had an outcome of death (200 mg BID (N = 7))
